Assay: Human HepG2 cell viability assay in 384 well format
Assay type: toxicity, cell-based
Parameters: dose 125 nL, time 70.5 hour; cytotoxicity at 70.5 h: concentration not given beside the values
Conditions: HepG2 cells, read-out: Inhibition

## Cc1cc2c(=O)n3c(nc2s1)CCN(C(=O)c1cnn(C)c1)CC3
  cytotoxicity at 70.5 h: -7.07%

## Cc1cc2c(=O)n3c(nc2s1)CCN(C(=O)c1sc(C)nc1C)CC3
  cytotoxicity at 70.5 h: -2.56%

## C[C@@H]1C[C@H](C(F)(F)F)n2nc(C3CCN(C(=O)C(C)(C)C)CC3)cc2N1
  cytotoxicity at 70.5 h: -6.86%

## COCC(=O)N1CCC(c2cc3n(n2)[C@@H](C(F)(F)F)C[C@@H](C)N3)CC1
  cytotoxicity at 70.5 h: -8.82%

## O=S1(=O)NC(C2CCN(Cc3ccccn3)CC2)Nc2ccccc21 (configuration not stated)
  cytotoxicity at 70.5 h: -9.26%

## Cc1ccc(S(=O)(=O)N2C[C@H]3C[C@H](NC(=O)c4ccccn4)[C@H]3C2)cc1
  cytotoxicity at 70.5 h: 56.3%

## COc1cccc(CNC(=O)c2ccccc2-n2cc(CN)cn2)c1
  cytotoxicity at 70.5 h: -2.7%

## Cn1cnc(CNC(=O)c2ccccc2-n2cc(CN)cn2)c1
  cytotoxicity at 70.5 h: -5.11%

## O=C(O)COc1ccccc1CN1CCCC1c1ccncn1 (configuration not stated)
  cytotoxicity at 70.5 h: -6.02%

## Cc1cc(N)cc(C2CN(Cc3cc[nH]n3)CCO2)n1 (configuration not stated)
  cytotoxicity at 70.5 h: -6.43%

## O=C1CO[C@H]2CN(Cc3ccccc3Br)C[C@@H]2N1
  cytotoxicity at 70.5 h: 20.8%

## Cc1ccccc1CC(=O)N(C)CC1(O)CCCN(c2ccccn2)C1 (configuration not stated)
  cytotoxicity at 70.5 h: -5.53%

## CN(CC1(O)CCCN(c2ccccn2)C1)C(=O)CCc1cccs1 (configuration not stated)
  cytotoxicity at 70.5 h: -7.41%

## Cn1ccnc1CN1CC[C@H](O)[C@@H](n2ccc(=O)[nH]c2=O)CC1
  cytotoxicity at 70.5 h: -3.14%

## CN(CC1(O)CCN(c2ccccn2)C1)C(=O)Cc1ccsc1 (configuration not stated)
  cytotoxicity at 70.5 h: -6.86%

## CC(C)(C)CC(=O)N1CCC(c2nn(CCN)c3nccnc23)C1 (configuration not stated)
  cytotoxicity at 70.5 h: -4.08%

## CCn1ncc(CN2C[C@@H]3CCCN3C[C@@H]2CCSC)c1C
  cytotoxicity at 70.5 h: -6.31%

## CCn1ncc(CN2C[C@@H]3CCCN3C[C@H]2CCSC)c1C
  cytotoxicity at 70.5 h: 1.32%

## CCc1cc(C(F)(F)F)c2c(C3CCCN(C(=O)COC)C3)noc2n1 (configuration not stated)
  cytotoxicity at 70.5 h: -4.44%

## CN(C)C(=O)CN1CCCC(c2cncc(-c3cccc(Cl)c3)n2)C1 (configuration not stated)
  cytotoxicity at 70.5 h: -1.23%

## CN1CCC(CN(C)C(=O)c2cc(C3CCCN3C)ccn2)CC1 (configuration not stated)
  cytotoxicity at 70.5 h: -6.76%

## Cc1nc(Nc2ncccn2)cc(C2CN(C(=O)c3cccnc3)C2)n1
  cytotoxicity at 70.5 h: -8.6%

## Cc1cc(C(F)(F)F)c2c(C3CCCN(C(=O)C4CC4)C3)noc2n1 (configuration not stated)
  cytotoxicity at 70.5 h: -8.63%

## Cc1nc(Nc2nnc(C)s2)cc(C2CCCN2S(C)(=O)=O)n1 (configuration not stated)
  cytotoxicity at 70.5 h: -1.79%

## Cn1ccc2ccnc(CC3CN(C(=O)c4cscn4)C3)c21
  cytotoxicity at 70.5 h: -2.15%

## CNC(=O)C1CN(Cc2c[nH]cn2)CCN(C2CCOCC2)C1 (configuration not stated)
  cytotoxicity at 70.5 h: 14.9%

## CN1CCCC(Cc2cncc(C(=O)NC3CC3)c2)C1 (configuration not stated)
  cytotoxicity at 70.5 h: -6.9%

## CCSCCOC(=O)CCCc1ccc2c(c1)CC(=O)N2
  cytotoxicity at 70.5 h: -12.3%

## O=C(C1CCCC1)N1CCC(C(O)c2ccc(F)cc2)CC1 (configuration not stated)
  cytotoxicity at 70.5 h: -6.02%

## CCOC(=O)CCCc1ccc2c(c1)CC(=O)N2
  cytotoxicity at 70.5 h: -18.2%

## COC(=O)C1(NCc2nc(C)c(C)o2)CCC(C)CC1 (configuration not stated)
  cytotoxicity at 70.5 h: -8.62%

## Cc1cc(C(=O)NCC2SCCc3ccccc32)no1 (configuration not stated)
  cytotoxicity at 70.5 h: -14.4%

## O=C(NCC1SCCc2ccccc21)c1cscn1 (configuration not stated)
  cytotoxicity at 70.5 h: -13.5%

## Cn1cc(C(=O)Nc2cccc(-c3ccc4c(c3)CCO4)n2)ccc1=O
  cytotoxicity at 70.5 h: 12%

## CCC(O)CN(Cc1cccc(C(=O)N(C)C)c1)c1ccccc1 (configuration not stated)
  cytotoxicity at 70.5 h: -1.87%

## CC(O)CN(Cc1cccc(C(=O)N(C)C)c1)c1ccccc1 (configuration not stated)
  cytotoxicity at 70.5 h: -3.2%

## Cc1cc(CN(C)Cc2cnc3c(c2)c(C)nn3C)no1
  cytotoxicity at 70.5 h: 8.45%

## Cn1cc(C2(C)CN(C(=O)COc3ccccc3F)CCO2)cn1 (configuration not stated)
  cytotoxicity at 70.5 h: -4.09%

## COc1ccccc1CC1CCCN(C(=O)c2n[nH]c3c2CCC3)C1 (configuration not stated)
  cytotoxicity at 70.5 h: -3.07%

## COc1ccc(Cl)cc1CCNC(=O)N(C)CC1CCOC1 (configuration not stated)
  cytotoxicity at 70.5 h: -1.13%

## CCN(CC)C(=O)C1(NCc2nc(C)c(C)o2)CCCCC1
  cytotoxicity at 70.5 h: -4.63%

## O=S(=O)(NCCCn1cccn1)c1ccc2c(c1)CCC2
  cytotoxicity at 70.5 h: -5.82%

## Cc1cccc(C(C)C)c1NC(=O)NCCN(C(C)C)C(C)C
  cytotoxicity at 70.5 h: -4.96%

## CC(C)CNC(=O)c1sccc1-n1cnnn1
  cytotoxicity at 70.5 h: -7.28%

## O=S(=O)(NCCCn1cncn1)c1ccc2c(c1)OCCO2
  cytotoxicity at 70.5 h: -3.62%

## OC(CNCc1nnc2ccccn12)c1ccc2c(c1)OCO2 (configuration not stated)
  cytotoxicity at 70.5 h: -8%

## OC(CNCCc1nnc2ccccn12)c1ccc(F)c(F)c1 (configuration not stated)
  cytotoxicity at 70.5 h: -6.79%

## CC(CN1CCOC1=O)NC(=O)c1ccccc1Oc1ccccc1 (configuration not stated)
  cytotoxicity at 70.5 h: 27.1%

## CCNC(=O)c1ccc(NC(=O)N(C)Cc2cc(C)on2)cc1
  cytotoxicity at 70.5 h: -4.32%

## CC(OCC1CC1)C(=O)NCCC(=O)Nc1ccccn1 (configuration not stated)
  cytotoxicity at 70.5 h: -7.55%

## CC(CN1CCOCC1)NC(=O)N1CCN(S(C)(=O)=O)CC1 (configuration not stated)
  cytotoxicity at 70.5 h: 27.9%

## O=S(=O)(c1cc(F)ccc1N1CC(n2cccn2)C1)C(F)(F)F
  cytotoxicity at 70.5 h: -0.145%

## COc1ccc(OCCNC(=O)CN(C)Cc2nnc(C)n2C)cc1
  cytotoxicity at 70.5 h: 29.6%

## O=C(Nc1cccc(N2CCCC2)c1)N[C@H](CCO)c1ccccc1
  cytotoxicity at 70.5 h: 2.92%

## COc1ccc(OC)c(CN2CCc3nc4ccsc4c(=O)n3CC2)c1
  cytotoxicity at 70.5 h: 38.7%

## Cc1cc(C[C@@H]2COC[C@H]2NCc2ccc(C(C)C)cc2)on1
  cytotoxicity at 70.5 h: -8.05%

## COc1cc(CN[C@@H]2COC[C@H]2Cc2cc(C)no2)cc(OC)c1
  cytotoxicity at 70.5 h: -6.2%
